15 compounds from patent US20110250133A1, “GASTRIN […] PEPTIDE COMPOUNDS” (priority 2003, published 2011) can be followed below.

Data set [1] addresses gastrin releasing peptide receptor (GRP-R) (human) (UniProt P30550). The data set is described as follows: saturation binding of carrier-added radioligand on PC-3 cells, 4 C.
The target of data set [2] is human neuromedin-B preferring receptor (NMB-R) (human) (UniProt P28336). The data set is described as follows: competition with 125I-universal ligand, receptor autoradiography on human cancer tissue.
Chain of human neuromedin-B preferring receptor (NMB-R) (human) (P28336 whole entry): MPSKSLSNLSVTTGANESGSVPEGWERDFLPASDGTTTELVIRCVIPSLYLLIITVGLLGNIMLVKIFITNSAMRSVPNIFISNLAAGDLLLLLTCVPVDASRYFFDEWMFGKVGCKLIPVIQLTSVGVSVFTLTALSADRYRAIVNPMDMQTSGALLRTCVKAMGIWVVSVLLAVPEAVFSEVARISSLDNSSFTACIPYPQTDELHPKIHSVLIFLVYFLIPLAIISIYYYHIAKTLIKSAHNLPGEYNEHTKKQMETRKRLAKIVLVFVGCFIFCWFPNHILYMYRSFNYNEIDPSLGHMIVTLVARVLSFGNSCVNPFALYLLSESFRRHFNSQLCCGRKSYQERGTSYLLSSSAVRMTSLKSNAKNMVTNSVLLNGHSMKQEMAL
Data set [3] deals with gastrin releasing peptide receptor (GRP-R) (human) (UniProt P30550). Described as above.
Chain of gastrin releasing peptide receptor (GRP-R) (human) (P30550 whole entry): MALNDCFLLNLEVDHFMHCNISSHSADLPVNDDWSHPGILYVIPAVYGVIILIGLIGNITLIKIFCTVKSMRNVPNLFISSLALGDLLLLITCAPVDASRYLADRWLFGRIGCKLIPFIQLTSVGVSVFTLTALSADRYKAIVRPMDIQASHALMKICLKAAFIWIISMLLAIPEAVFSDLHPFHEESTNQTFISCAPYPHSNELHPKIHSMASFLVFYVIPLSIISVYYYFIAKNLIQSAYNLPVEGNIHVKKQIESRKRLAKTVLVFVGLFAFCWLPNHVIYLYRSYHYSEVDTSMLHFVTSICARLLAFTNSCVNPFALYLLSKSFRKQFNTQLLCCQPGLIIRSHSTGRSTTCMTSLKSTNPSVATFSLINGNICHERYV
For data set [4] the target is unchanged. The data set is described as follows: competition with 177Lu-AMBA on PC-3 cells, 4 C.
Data set [5] has the same target. The data set is described as follows: competition with 67Ga-AMBA on PC-3 cells, 4 C.
The subject of data set [6] is ZR-75-1 human breast cancer cells. As to the kind of experiment: Effect of 4-hydroxytamoxifen on GRP receptor binding and glucose uptake in ZR-75-1 cells. It counts as cell-based.
Experimental: Method: ZR-75-1 breast cancer cell line (human ductal carcinoma with estrogen receptor) was obtained from the American Type Culture Collection (ATCC).
ZR-75-1 cells were plated on Day 0 (40 k/well 96-well PE Scintiplate). […] To determine the cell numbers and the proliferation, 100 uL of 10% CCK—F solution in DPBS (Molecular technologies) was added to the same plate, incubated for 30 min at 37° C. and the relative fluorescence (RFU) measured at 535 nm. Based on the cell numbers and the ^177Lu-binding, the Bmax (fmoles bound/million cells) was calculated.
The cell numbers were determined with CCK—F treatment as described above.
Data set [7] shares this test system. As to the kind of experiment: Longterm (2-12 days) effect of 4-hydroxytamoxifen on GRP receptor binding in ZR-75-1 cells. It counts as cell-based.
Experimental: The ZR-75-1 cells were seeded at 15K per well onto two 96-well scintiplates on the same day as 2 days study.
In data set [8] the test system is BT-474 human breast cancer cells. As to the kind of experiment: Effect of drug treatment on GRP receptor binding (177Lu-AMBA) in BT-474 cells. It counts as cell-based. The following applies: BT-474; relative to untreated control; drug 0.1-1.0 μM (4-OH Tamoxifen 0.001-0.1 μM).
Experimental: BT-474 breast cancer cells (human primary invasive ductal carcinoma; ER+, PR+, amplified HER2/neu+) were obtained from the American Type Culture Collection. The growth medium for BT-474 cells is Hybri-care Medium (Cat No: 46X, ATCC) supplemented with 10% heat inactivated FBS (Hyclone, SH30070.03), 0.2% NaHCO3, and antibiotic/antimycotic “PSF-1×” (GibcoBRL, 15240-062) for a final concentration of penicillin-streptomycin (1×, 100 units/mL), and fungizone (0.25 μg/mL). […] Cells for binding experiments were plated on Day 0 at 5.6×10^4 cells/cm^2 in 96-well white/clear bottom microtiter plates (Falcon Optilux-I), or 96 well black/clear collagen I cellware plates (Beckton Dickinson Biocoat).
(§1) RPMI 1640 supplemented with 20 mM HEPES, 0.1% BSA (w/v), 0.5 mM PMSF (AEBSF), bacitracin (50 mg/500 ml), pH 7.4.
(§2) Incubations were stopped by the addition of 200 μL of ice-cold binding buffer. Plates were washed three more times with binding buffer, 140 μL of scintillation fluid was added to each well, the plates were sealed and analyzed on a Microβ plate reader (Microbeta Trilux, Perkin-Elmer).
Treatment: BT-474 cells were plated on Day 0 and treated on Days 1 and 2 (DT1, DT2).
Data set [9] has as its system PC-3 prostate cancer cells. The data set is described as follows: Effect of drug treatment on GRP receptor binding (177Lu-AMBA) in PC-3 cells. It is filed as cell-based, human. The following applies: PC-3; drug 0.1-1.0 μM (4-OH Tamoxifen 0.001-0.1 μM).
Experimental: as §1, §2
PC-3 (human prostate adenocarcinoma, bone metastasis, AR-, ER) were obtained from the American Type Culture Collection. The growth medium for PC-3 cells is RPMI 1640 (10-041-CM, Mediatech, Inc), supplemented with 10% heat inactivated FBS (Hyclone, SH30070.03) and PSF-1× (as in Example LXVI). The binding buffer, lapatinib solutions, treatment method and cell binding assay is the same as in Example LXVI.
Data set [10] has as its system T47D human breast cancer cells. The data set is described as follows: Effect of drug treatment on GRP receptor binding (177Lu-AMBA) in T47D cells. The settings on record: T-47D; relative to untreated control; drug 0.1-1.0 μM (4-OH Tamoxifen 0.001-0.1 μM). It is filed as cell-based. The source says:
T-47D breast cancer cells (human metastatic mammary gland ductal adenocarcinoma isolated from pleural effusion, ER+, PR+) were obtained from the American Type Culture Collection.

The test system of data set [11] is PC3 tumor-bearing nude mouse model. The data set is described as follows: Radiotherapy efficacy studies in the PC3 tumor-bearing nude mouse model. It counts as in vivo. The following applies: 177Lu labeled; for survival, Short Term Efficacy Study: 30 mCi/kg, up to 30 days, vs untreated and DO3A-monoamide-Aoc-QWAVGHLM-NH2 control; for survival, Long Term Efficacy Study: same dose, up to 120 days, vs controls. How it is done: Radiotherapy studies were performed using the PC3 tumor-bearing nude mouse model. […] (n=12 for each treatment group for up to 30 days, and n=36 for the pooled untreated control group for up to 31 days). […] The subjects were housed in a barrier environment for the duration of the study. Body weight and tumor size (by caliper measurement) were collected on each subject 3 times per week for the duration of the study. Criteria for early termination included: death; loss of total body weight (TBW) equal to or greater than 20%; tumor size equal to or greater than 2 cm^3.

Data set [12] has as its system PC3 tumor-bearing nude mice. It counts as in vivo, mouse.
Experimental: In all studies, mice were administered 100 μL of ^177Lu-labeled test compound at 200 μCi/kg, i.v., with a residence time of 1 and 24 h per group (n=3-4). Tissues were analyzed in an LKB 1282 CompuGamma counter with appropriate standards.
In the next data set the target is T1, NMB-R (Rattus norvegicus, UniProt P24053).
T1 construct: C6, an NMB-R expressing rodent glioblastoma cell line; host or cells: C6 glioblastoma cells, intact adherent cells
T1 sequence (P24053 1-390): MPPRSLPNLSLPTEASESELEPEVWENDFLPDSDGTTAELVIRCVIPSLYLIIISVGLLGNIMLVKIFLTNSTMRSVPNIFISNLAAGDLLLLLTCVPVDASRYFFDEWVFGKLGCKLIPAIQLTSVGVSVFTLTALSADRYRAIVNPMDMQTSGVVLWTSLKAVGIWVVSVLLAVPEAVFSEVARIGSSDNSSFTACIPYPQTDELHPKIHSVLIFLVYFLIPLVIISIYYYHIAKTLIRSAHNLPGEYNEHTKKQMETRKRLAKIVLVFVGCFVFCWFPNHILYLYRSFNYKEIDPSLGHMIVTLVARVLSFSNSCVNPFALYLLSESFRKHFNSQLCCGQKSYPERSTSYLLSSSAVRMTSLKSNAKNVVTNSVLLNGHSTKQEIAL
The data set is described as follows: Competition with 125I-NMB for NMB-R in C6 cells (linker specificity).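 On all read-outs here: test cells: rodent glioblastoma C6 line carrying NMB-R, human prostate cancer PC3 line carrying GRP-R, affinity fitted by one-site competition nonlinear regression.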 It is filed as binding, rodent. The settings on record: for receptor subtype preference (GRP-R vs NMB-R): from IC50 with 125I-NMB (C6) and 125I-BBN (PC3), cut off 10x the IC50 of [Tyr4]-BBN.

The test system of the next data set is PC3 cells. As to the kind of experiment: Internalization and efflux assay in PC3 cells. The following applies: 125I-BBN or Lu-177 complexes; for Internalisation (40 minutes): 40 min at 37° C.; for Efflux (2 h): 2 h at 37° C. after 40 min loading. It is filed as cell-based, human.
The target in the next data set is T2, GRP-R (Homo sapiens, UniProt P30550).
T2 construct: host or cells: PC3 (PC-3) human prostate cancer cells, intact adherent cells
T2 sequence (P30550 whole entry): as the sequence (P30550 whole entry) above
As to the kind of experiment: Competition studies of modified BBN analogs with 125I-BBN for GRP-R in PC3 cells (Example LXI). It counts as binding.

The mark [13] stands for this setting: ZR-75-1, long-term treatment, 100 nM.
Where [14] appears, read: 177Lu-labeled, 1 and 24 h, compared with control DO3A-monoamide-Aoc-QWAVGHLM-NH2.
Where [15] appears, read: 177Lu-labeled, compared with control DO3A-monoamide-Aoc-QWAVGHLM-NH2.

The Kd is the equilibrium constant for the complex coming apart. As a reminder, the IC50 is the concentration that inhibits the measured activity by half. Read a high IC50 as weaker potency. As usually defined, the EC50 is the midpoint of the concentration-response curve.

Like-named read-outs stand apart in the source and are kept apart here.

In data set [1], 67Ga-AMBA (peptide) came in with a Binding capacity (Bmax) (fmoles/1 × 10^6 cells) of 402, an equilibrium dissociation constant (Kd) of 0.46 nM and a Receptors/cell (receptors/cell) of 242000.

Consider 175Lu-L70 (peptide), for which the figures for the concentration for half-maximal inhibition (IC50) in data set [2] and in data set [3] were 0.9 nM and 0.8 nM, respectively. Besides, the EC50 stood at 1.47 nM in data set [4] and 1.28 nM in data set [5].

Regarding `CC/C(=C(\c1ccc(O)cc1)c1ccc(OCCN(C)C)cc1)c1ccccc1` [4-OH Tamoxifen, 4-hydroxytamoxifen], the “decrease in glycolysis (2-NBDG uptake)” value in data set [6] (ZR-75-1) is listed as ~20%. Moreover, the “change in cell proliferation” value in data set [6] (ZR-75-1, 0-0.1 μM) is on record as “little change”. Also, the inhibition of proliferation in data set [7] (ZR-75-1, 100 nM, by 12 day) is listed as 28%. Further, the 2-NBDG uptake result in data set [7] (setting [13]) is listed as “smaller changes”. Moreover, the 177Lu-AMBA uptake result in data set [7] (setting [13]) is recorded as “significant reduction”. The “decrease in 177Lu-AMBA binding (GRP receptor specific signal per cell)” value in [8] is “up to 73%”; in data set [10], “up to 35%”. Further, the “change in GRP receptor specific signal per cell (177Lu-AMBA binding)” value in [9] was “no change”.

Take `CSCC[C@H](NC(=O)[C@H](CC(C)C)NC(=O)[C@H](Cc1c[nH]cn1)NC(=O)CNC(=O)[C@@H](NC(=O)[C@H](C)NC(=O)[C@H](Cc1c[nH]c2ccccc12)NC(=O)[C@H](CCC(N)=O)NC(=O)CC[C@@H](C)[C@H]1CC[C@H]2[C@@H]3CC[C@@H]4C[C@@H](NC(=O)CNC(=O)CN5CCN(CC(=O)O)CCN(CC(=O)O)CCN(CC(=O)O)CC5)CC[C@]4(C)[C@H]3C[C@H](O)[C@]12C)C(C)C)C(N)=O` [Compound L63, N-[(3β,5β,12α)-3-[[[[[4,7,10-Tris(carboxymethyl)-1,4,7,10-tetraazacyclododec-1-yl]acetyl]amino]acetyl]amino]-12-hydroxy-24-oxocholan-24-yl]-L-glutaminyl-L-tryptophyl-L-alanyl-L-valyl-glycyl-L-histidyl-L-leucyl-L-methioninamide]: the “survival, Short Term Efficacy Study” value in [11] is given as “increased survival”. Also, the “uptake in the tumor” value in data set [12] (setting [14]) is “high tumor uptake”. For the same compound, in data set [12] (setting [15]), the “distribution of radioactivity in the blood, liver and kidneys” value was “increased blood and liver values at early times”; the “uptake in the mouse pancreas” value was “much higher”. For the same compound, the “receptor subtype preference (GRP-R vs NMB-R)” value on NMB-R was “dual affinity for both GRP-R and NMB-R”. Besides, in the data set with PC3 cells, the “Internalisation (40 minutes)” value was 64% and the “Efflux (2 h)” value is listed as 0%.

As for `CSCC[C@H](NC(=O)[C@H](CC(C)C)NC(=O)[C@H](Cc1c[nH]cn1)NC(=O)CNC(=O)[C@@H](NC(=O)[C@H](C)NC(=O)[C@H](Cc1c[nH]c2ccccc12)NC(=O)[C@H](CCC(N)=O)NC(=O)CC[C@@H](C)[C@H]1CC[C@H]2[C@@H]3[C@H](O)C[C@@H]4C[C@@H](NC(=O)CNC(=O)CN5CCN(CC(=O)O)CCN(CC(=O)O)CCN(CC(=O)O)CC5)CC[C@]4(C)[C@H]3C[C@H](O)[C@]12C)C(C)C)C(N)=O` [Compound L64, N-[(3β,5β,7α,12α)-3-[[[[[4,7,10-Tris(carboxymethyl)-1,4,7,10-tetraazacyclododec-1-yl]acetyl]amino]acetyl]amino]-7,12-dihydroxy-24-oxocholan-24-yl]-L-glutaminyl-L-tryptophyl-L-alanyl-L-valyl-glycyl-L-histidyl-L-leucyl-L-methioninamide], in [11], the “survival, Short Term Efficacy Study” value is reported as “increased survival” and the “survival, Long Term Efficacy Study” value is reported as “significantly increased survival”. The “uptake in the tumor” value in [12] (setting [14]) is given as “much higher”. The “uptake in the mouse pancreas” value in data set [12] (setting [15]) is “much higher”. Besides, the “receptor subtype preference (GRP-R vs NMB-R)” value at NMB-R is “dual affinity for both GRP-R and NMB-R”. Moreover, in the data set on PC3 cells, the “Internalisation (40 minutes)” value came to 69% and the “Efflux (2 h)” value amounted to 20%.

For the compound “DO3A-Gly-Abz4-Gln-Trp-Ala-Val-Gly-His-Phe-Leu-NH2 [Compound L300]”, at GRP-R, the “competition at the GRP-R” value is “high activity at the GRP-R”.

With DO3A-monoamide-Aoc-QWAVGHLM-NH2, in the data set on PC3 cells, the “Internalisation (40 minutes)” value is 89% and the “Efflux (2 h)” value is on record as 28%.

For GNLWATGHFM-NH2, the “competition at NMB-R” value at NMB-R is recorded as “effective NMB competitors”. For the same compound, the “receptor preference in words (GRP-R / GRP-R and NMB-R)” value at NMB-R (wrapped cell: 'No selective preference' or 'preference for NMB-R') is on record as “preference for NMB-R”. Besides, the “competition at the GRP-R” value at GRP-R is “unable to compete”.

As to Ga-AMBA (non-radioactive) (peptide), the EC50 was found to be 1.15 nM in [4] and 1 nM in [5].

On to “N-[4-[[[[[4,7,10-Tris(carboxymethyl)-1,4,7,10-tetraazacyclododec-1-yl]acetyl]amino]acetyl]amino]benzoyl]-L-glutaminyl-L-tryptophyl-L-alanyl-L-valyl-glycyl-L-histidyl-L-leucyl-L-methioninamide [Compound L70]”, for which, in [11], the “survival, Short Term Efficacy Study” value was “increased survival” and the “survival, Long Term Efficacy Study” value is “significantly increased survival”. Moreover, in [12] (mouse, in vivo), the “uptake in the tumor” value is “much higher”. Also, on NMB-R, the “receptor subtype preference (GRP-R vs NMB-R)” value is on record as “dual affinity”. Moreover, in the data set on PC3 cells, the “Internalisation (40 minutes)” value stood at 70% and the “Efflux (2 h)” value stood at 12%.

“N-[(3β,5β,12α)-3-[[[4,7,10-Tris(carboxymethyl)-1,4,7,10-tetraazacyclododec-1-yl]acetyl]amino]-glycyl-4-aminobenzoyl-L-glutaminyl-L-tryptophyl-L-alanyl-L-valyl-glycyl-L-histidyl-L-phenylalanyl-L-methioninamide [Compound L228]”: the “competition at the GRP-R” value on GRP-R was “maintains GRP-R activity”.

For the compound “N-[(3β,5β,12α)-3-[[[4,7,10-Tris(carboxymethyl)-1,4,7,10-tetraazacyclododec-1-yl]acetyl]amino]-glycyl-4-aminobenzoyl-L-glutaminyl-L-tryptophyl-L-alanyl-glycyl-L-histidyl-L-phenylalanyl-L-leucinamide [Compound L224]”, the “competition at the GRP-R” value on GRP-R is on record as “complete loss of binding”.

Take “N-[(3β,5β,12α)-3-[[[4,7,10-Tris(carboxymethyl)-1,4,7,10-tetraazacyclododec-1-yl]acetyl]amino]-glycyl-4-aminobenzoyl-L-leucyl-L-tryptophyl-L-alanyl-L-valinyl-glycyl-L-serinyl-L-phenylalanyl-L-methioninamide [Compound L225]”: the “competition at the GRP-R” value on GRP-R is recorded as “reduces competition at the GRP-R”.

“[DTyr6, βAla11, Phe13, Nle14]-BBN(6-14) (peptide)”: the IC50 stood at 0.8 nM in [2] and 0.7 nM in data set [3].

For yGNLWATGHFM-NH2, the “competition at NMB-R” value on NMB-R is given as “effective NMB competitors”. In addition, the “competition at the GRP-R” value at GRP-R is “unable to compete”.
